Measured values reported in patent US9321718B2 (CHROMA THERAPEUTICS LTD., priority 2010, dated 2016).
Where two headings read alike, the source gives them in different places.

Key:
[1] = molecular target: T1, human recombinant his-tagged HSP90α (Homo sapiens, UniProt P07900); assay: HSP90 enzyme assay (HTRF, competition with biotinylated Geldanamycin); type: binding; conditions: IC50 range; read-out: Enzyme Assay
T1 construct: purchased Prospec Technogene #HSP90
Procedure, shortened: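 HTRF competition: compounds (5000 to 0.3 nM, 0.5% DMSO) displace 40 nM biotinylated geldanamycin from 40 nM his-tagged HSP90α. Binding was read via Eu-cryptate anti-his/streptavidin-XL FRET after 20 h at room temperature in Hepes pH 7.3 buffer. IC50 was fitted against controls.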

[2] = system: TNFα release from LPS stimulated THP-1 (hCE-1 +ve) cells; assay: LPS-stimulation of THP-1 cells (TNF-α release); type: cell-based, human; conditions: IC50 range, TNF-α after LPS 1 μg/ml, 6 hours, read-out: THP-1 Assay
Protocol: THP-1 cells are plated in […] at a density of 4×10^4 cells/well in V-bottomed 96 well tissue culture treated plates and incubated at 37° C. in 5% CO2 for 16 hours. 2 Hours after the addition of the inhibitor in 100 μl of tissue culture media, the cells are stimulated with LPS (E. Coli strain 005:B5, Sigma) at a final concentration of 1 μg/ml and incubated at 37° C. in 5% CO2 for 6 hours. TNF-α levels are measured from cell-free supernatants by sandwich ELISA (R&D Systems #QTA00B).

[3] = system: TNF-α levels in LPS-stimulated human whole blood; assay: LPS-stimulation of human whole blood (TNF-α levels); type: cell-based; conditions: IC50 range, TNF-α after LPS 100 ng/ml, 6 hours
Protocol: Whole blood is taken by venous puncture using heparinised vacutainers (Becton Dickinson) and diluted in an equal volume of RPMI1640 tissue culture media (Sigma). 100 μl is then plated in V-bottomed 96 well tissue culture treated plates. 2 Hours after the addition of the inhibitor in 100 μl of RPMI1640 media, the blood is stimulated with LPS (E. Coli strain 005:B5, Sigma) at a final concentration of 100 ng/ml and incubated at 37° C. in 5% CO2 for 6 hours. TNF-α levels are measured from cell-free supernatants by sandwich ELISA (R&D Systems #QTA00B).

Compound	IC50 [1]	IC50 ([2]; Homo sapiens, THP-1)	IC50 ([3]; Homo sapiens)	IC50 [2]	IC50 [3]
CC(C)c1cc(C(=O)N(C)Cc2cccc(CN[C@H](C(=O)OC3CCCC3)c3ccccc3)c2)c(O)cc1O [Example 69, cyclopentyl (2S)-[(3-{[{[2,4-dihydroxy-5-(propan-2-yl)phenyl]carbonyl}(methyl)amino]methyl}benzyl)amino](phenyl)ethanoate]	100 to 1000 nM	> 1000 nM	> 1000 nM	–	–
CC(C)C[C@H](NC[C@H]1CCCN1C(=O)c1cc(C(C)C)c(O)cc1O)C(=O)OC1CCCC1 [Example 74, cyclopentyl N-{[(2R)-1-{[2,4-dihydroxy-5-(propan-2-yl)phenyl]carbonyl}pyrrolidin-2-yl]methyl}-L-leucinate]	100 to 1000 nM	> 1000 nM	> 1000 nM	–	–
CC(C)C[C@@H](NC1CCN(C(=O)c2cc(C(C)C)c(O)cc2O)C1)C(=O)OC1CCCC1 (stereo partly drawn) [Example 76, cyclopentyl N-(1-{[2,4-dihydroxy-5-(propan-2-yl)phenyl]carbonyl}pyrrolidin-3-yl)-D-leucinate]	< 100 nM	> 1000 nM	> 1000 nM	–	–
CC(C)c1cc(C(=O)N(C)Cc2cccc(CNC3(C(=O)OC4CCCC4)CCCC3)c2)c(O)cc1O [Example 68, cyclopentyl 1-[(3-{[{[2,4-dihydroxy-5-(propan-2-yl)phenyl]carbonyl}(methyl)amino]methyl}benzyl)amino]cyclopentanecarboxylate]	< 100 nM	100 to 1000 nM	> 1000 nM	–	–
CC(C)c1cc(C(=O)N2CCC(CN[C@H](C(=O)OC3CCCC3)c3ccccc3)CC2)c(O)cc1O [Example 36, cyclopentyl (2S)-{[(1-{[2,4-dihydroxy-5-(propan-2-yl)phenyl]carbonyl}piperidin-4-yl)methyl]amino}(phenyl)ethanoate]	< 100 nM	100 to 1000 nM	100 to 1000 nM	–	–
CC(C)c1cc(C(=O)N2CCC(CCN[C@@H](COC(C)(C)C)C(=O)OC3CCCC3)CC2)c(O)cc1O [Example 45, cyclopentyl O-tert-butyl-N-[2-(1-{[2,4-dihydroxy-5-(propan-2-yl)phenyl]carbonyl}piperidin-4-yl)ethyl]-L-serinate]	< 100 nM	100 to 1000 nM	100 to 1000 nM	–	–
CC(C)C[C@H](NC1CCN(C(=O)c2cc(C(C)C)c(O)cc2O)C1)C(=O)OC1CCCC1 (stereo partly drawn) [Example 20, cyclopentyl N-(1-{[2,4-dihydroxy-5-(propan-2-yl)phenyl]carbonyl}pyrrolidin-3-yl)-L-leucinate]	< 100 nM	> 1000 nM	> 1000 nM	–	–
CC(C)c1cc(C(=O)N(C)Cc2cccc(CNC(C)(C)C(=O)OC3CCCC3)c2)c(O)cc1O [Example 67, cyclopentyl N-(3-{[{[2,4-dihydroxy-5-(propan-2-yl)phenyl]carbonyl}(methyl)amino]methyl}benzyl)-2-methylalaninate]	< 100 nM	100 to 1000 nM	100 to 1000 nM	–	–
CC(C)C[C@H](NCCc1ccc2c(c1)CN(C(=O)c1cc(C(C)C)c(O)cc1O)C2)C(=O)OC1CCCC1 [Example 61, cyclopentyl N-[2-(2-{[2,4-dihydroxy-5-(propan-2-yl)phenyl]carbonyl}-2,3-dihydro-1H-isoindol-5-yl)ethyl]-L-leucinate]	< 100 nM	100 to 1000 nM	100 to 1000 nM	–	–
cyclopentyl N-[(1-{[2,4-dihydroxy-5-(propan-2-yl)phenyl]carbonyl}piperidin-4-yl)methyl]-L-serinate [Example 33]	< 100 nM	–	–	100 to 1000 nM	100 to 1000 nM
CC(C)c1cc(C(=O)N2Cc3ccc(CCCNC4(C(=O)OC5CCCC5)CCCC4)cc3C2)c(O)cc1O [Example 65, cyclopentyl 1-{[3-(2-{[2,4-dihydroxy-5-(propan-2-yl)phenyl]carbonyl}-2,3-dihydro-1H-isoindol-5-yl)propyl]amino}cyclopentanecarboxylate]	< 100 nM	100 to 1000 nM	100 to 1000 nM	–	–
CC(C)C[C@H](NCc1ccc(CN(C)C(=O)c2cc(C(C)C)c(O)cc2O)cc1)C(=O)OC1CCCC1 [Example 70, cyclopentyl N-(4-{[{[2,4-dihydroxy-5-(propan-2-yl)phenyl]carbonyl}(methyl)amino]methyl}benzyl)-L-leucinate]	< 100 nM	100 to 1000 nM	100 to 1000 nM	–	–

More lines, main results first:

IC50 [1]	IC50 ([2]; Homo sapiens, THP-1)	IC50 ([3]; Homo sapiens)	Compound	IC50 [2]	IC50 [3]
< 100 nM	100 to 1000 nM	100 to 1000 nM	CC(C)c1cc(C(=O)N(C)Cc2ccc(CNC(C)(C)C(=O)OC3CCCC3)cc2)c(O)cc1O [Example 72, cyclopentyl N-(4-{[{[2,4-dihydroxy-5-(propan-2-yl)phenyl]carbonyl}(methyl)amino]methyl}benzyl)-2-methylalaninate]	–	–
< 100 nM	< 100 nM	100 to 1000 nM	CC(C)C[C@H](NCC1CCN(C(=O)c2cc(C(C)C)c(O)cc2O)CC1)C(=O)OC1CCCC1 [Example 21, cyclopentyl N-[(1-{[2,4-dihydroxy-5-(propan-2-yl)phenyl]carbonyl}piperidin-4-yl)methyl]-L-leucinate]	–	–
< 100 nM	100 to 1000 nM	100 to 1000 nM	CC(C)c1cc(C(=O)N2CCC(NC(C)(C)C(=O)OC3CCCC3)CC2)c(O)cc1O [Example 2, cyclopentyl N-(1-{[2,4-dihydroxy-5-(propan-2-yl)phenyl]carbonyl}piperidin-4-yl)-2-methylalaninate]	–	–
< 100 nM	< 100 nM	100 to 1000 nM	CC(C)C[C@H](NCCCc1ccc2c(c1)CN(C(=O)c1cc(C(C)C)c(O)cc1O)C2)C(=O)OC1CCCC1 [Example 64, cyclopentyl N-[3-(2-{[2,4-dihydroxy-5-(propan-2-yl)phenyl]carbonyl}-2,3-dihydro-1H-isoindol-5-yl)propyl]-L-leucinate]	–	–
< 100 nM	100 to 1000 nM	100 to 1000 nM	CC(C)C[C@@H](NCC1CCN(C(=O)c2cc(C(C)C)c(O)cc2O)CC1)C(=O)OC1CCCC1 [Example 28, cyclopentyl N-[(1-{[2,4-dihydroxy-5-(propan-2-yl)phenyl]carbonyl}piperidin-4-yl)methyl]-D-leucinate]	–	–
< 100 nM	100 to 1000 nM	100 to 1000 nM	CC(C)c1cc(C(=O)N(C)Cc2ccc(CCNC(C)(C)C(=O)OC3CCCC3)cc2)c(O)cc1O [Example 73, cyclopentyl N-[2-(4-{[{[2,4-dihydroxy-5-(propan-2-yl)phenyl]carbonyl}(methyl)amino]methyl}phenyl)ethyl]-2-methylalaninate]	–	–
< 100 nM	100 to 1000 nM	> 1000 nM	CC(C)C[C@H](NCCc1ccc2c(c1)CN(C(=O)c1cc(C(C)C)c(O)cc1O)C2)C(=O)OC(C)(C)C [Example 62, tert-butyl N-[2-(2-{[2,4-dihydroxy-5-(propan-2-yl)phenyl]carbonyl}-2,3-dihydro-1H-isoindol-5-yl)ethyl]-L-leucinate]	–	–
< 100 nM	100 to 1000 nM	< 100 nM	CC(C)c1cc(C(=O)N2CCC(N[C@@H](CC3CCCCC3)C(=O)OC3CCCC3)CC2)c(O)cc1O [Example 13, cyclopentyl 3-cyclohexyl-N-(1-{[2,4-dihydroxy-5-(propan-2-yl)phenyl]carbonyl}piperidin-4-yl)-L-alaninate]	–	–
< 100 nM	< 100 nM	100 to 1000 nM	CC(C)c1cc(C(=O)N2Cc3ccc(CNC4(C(=O)OC5CCCC5)CCCC4)cc3C2)c(O)cc1O [Example 60, cyclopentyl 1-{[(2-{[2,4-dihydroxy-5-(propan-2-yl)phenyl]carbonyl}-2,3-dihydro-1H-isoindol-5-yl)methyl]amino}cyclopentanecarboxylate]	–	–
< 100 nM	100 to 1000 nM	100 to 1000 nM	CC(C)c1cc(C(=O)N2CCC(N[C@@H](Cc3ccccc3)C(=O)OC3CCCC3)CC2)c(O)cc1O [Example 9, cyclopentyl N-(1-{[2,4-dihydroxy-5-(propan-2-yl)phenyl]carbonyl}piperidin-4-yl)-L-phenylalaninate]	–	–
< 100 nM	100 to 1000 nM	100 to 1000 nM	CC(C)c1cc(C(=O)N2CCC(N[C@@H](C)C(=O)OC3CCCC3)CC2)c(O)cc1O [Example 5, cyclopentyl N-(1-{[2,4-dihydroxy-5-(propan-2-yl)phenyl]carbonyl}piperidin-4-yl)-L-alaninate]	–	–
< 100 nM	–	–	cyclopentyl N-(1-{[2,4-dihydroxy-5-(propan-2-yl)phenyl]carbonyl}piperidin-4-yl)-L-valinate [Example 3]	> 1000 nM	> 1000 nM
